Data reported in patent US8197864B2, “Preparation, process and a regenerative method and technique for prevention, treatment and glycemic control of diabetes mellitus” (Arjuna Natural Extracts, priority 2004, dated 2012).

System: normal rats
Assay: Hypoglycemic activity of fractions on blood sugar level in fasted normal rats
Assay type: in vivo, Sprague dawley rats
Settings: glybenclamide 1 mg/kg, metformin 150 mg/kg; for blood sugar level, 1 hr: 1 hr after single oral dose: fractions 100 mg/kg; for blood sugar level, 3 hr: 3 hr after single oral dose: fractions 100 mg/kg; for blood sugar level, 5 hr: 5 hr after single oral dose: fractions 100 mg/kg; for blood sugar level, Fasting: fasting value before administration, single oral dose: fractions 100 mg/kg; for effect on blood glucose level (in words): single oral dose after 4 hours of fasting: fractions 100 mg/kg
Method: Activity of different extracts were tested using Sprague dawley rats of either sex aged 3 months weighing 180-200 g. After 3-4 hrs of fasting the rats were divided into 7 groups of 6 in each, one group kept as control and 4 groups were given different fractions (Fraction I, Fraction III, Fraction IV and Fraction V) of extract in the dose of 100 mg/kg. Sixth and seventh groups were given standard drugs glybenclamide (1 mg/kg) and metformin (150 mg/kg) respectively.
(See Table II, graph I) The extract/drug was administered orally (single dose) after 4 hours of fasting. […] In FIG. 2, the graph provides blood glucose level in normal rats in mg/dl measured over a duration of 5 hours. The normal rats were fed with different fractions of the extract after four hours of fasting.

SMILES: COc1ccc(Cl)cc1C(=O)NCCc1ccc(S(=O)(=O)NC(=O)NC2CCCCC2)cc1 [Glybenclamide, glybenclamide]
- blood sugar level, 1 hr: *58.8 ± 9.8 mg/dl
- blood sugar level, 3 hr: *43.3 ± 8.2 mg/dl
- blood sugar level, 5 hr: *43.2 ± 5.8 mg/dl
- blood sugar level, Fasting: 72.6 ± 8.6 mg/dL
- effect on blood glucose level (in words): significant (p<0.05) decrease in blood glucose level in the first hour

SMILES: CN(C)C(=N)N=C(N)N [Metformin, metformin]
- blood sugar level, 1 hr: 70.6 ± 3.0 mg/dL
- blood sugar level, 3 hr: 68.3 ± 2.6 mg/dL
- blood sugar level, 5 hr: *61.5 ± 3.0 mg/dl
- blood sugar level, Fasting: 76.6 ± 4.1 mg/dL
- effect on blood glucose level (in words): significant (p<0.05) decrease in blood glucose level in the fifth hour
